Reference: patent US20260102377A1, “COMPOSITIONS AND METHODS FOR TREATING MYASTHENIA GRAVIS” (priority 2022, published 2026)
Values joined by “and” are separate entries in the source; they are usually repeats but may differ in a detail not shown here. Equal entries are not always repeated.

How the values were obtained:
EAMG rats [1] = test: Grip strength test after single dose of Mestinon and CIC-1 inhibitor alone or in combination; format: in vivo, rat
Description: (§1) To induce EAMG, 250 μL of emulsion of Complete Freund's Adjuvant, consisting of heat-inactivated Mycobacterium tuberculosis H37Ra in non-metabolizable oils, together with Phosphate-Buffered Saline (PBS) and 80 μg of the extracellular α-domain peptide fragment of the human nicotinic acetylcholine receptor (antigen) was injected subcutaneously in seven-week-old, anaesthetized Lewis rats. The disease-inducing antigen was supplied by the Hellenic Pasteur institute3. The emulsion was deposited at the tail base, left hindleg, and right foreleg. After injection, animals were allowed to recover and returned to their home cage maintained in ventilated racks under controlled temperature (20 to 22° C.) and humidity (˜55%) control, under a 12-h light/12-h dark cycle with food and water provided ad libitum. The animals had pathogen free status and the housing and changing system was designed to assure that the pathogen free status was preserved during the study. The EAMG rats were observed, weighed, and scored for MG symptoms weekly until symptoms of MG developed, whereafter animals were observed daily.
In EAMG animals with severe MG symptoms the effects of CIC-1 inhibitor and Mestinon (pyridostigmine) alone or in combination was assessed. […] The study was blinded to both the experimenter and during subsequent analysis. Animals were subjected to grip strength test before compound administration, as described above and then dosed per oral with either 0.375 mg/kg pyridostigmine bromide (Mestinon) (CAS-no 101-26-8), 20 mg/kg NMD670 or a combination of both pyridostigmine and NMD670. Grip strength was tested 45 minutes post dosing. […] The change in grip strengths was calculated for individual animals relative to the results obtained prior to administration of test article and then averaged.
Grip strength was measured on a BIOSEB BIO-GT3 Grip strength meter (force transducer, S/N 180271). […] Care was taken to ensure that the force recorded reflected the grip strength of the rat and not the force of the pulls conducted by the operator. […]

EAMG rats [2] = test: 14-day dosing in EAMG animals: grip strength; format: in vivo, rat
Description: as §1
(§2) Sixteen (16) rats with an EAMG clinical score of 2 were allocated to the study and stratified to one of the two treatment groups (vehicle vs NMD670, 8 rats per group). Stratification was based on rotarod endurance and grip strength performance with the aim to obtain similar average starting points for the two groups. Grip strength and Rotarod performance were measured prior to treatment (day 0) and on days 1, 4, 7, 9, 11 and 14 during treatment. The treatment was administered by per oral gavage. Dosing was twice daily with 20 mg/kg NMD670 or vehicle (sterile water) for 14 days unless the rat was subjected to premature termination due to reaching humane endpoints. The dose solutions for the treatment groups were blinded. Thus, experimenters and subsequent analysis were blinded as to which group received CIC-1 inhibitor and which group received vehicle. Full analysis of data and statistics were concluded before unblinding the data. Plasma samples were obtained on days 0, 1 and 14, with muscle samples obtained on day 14 at termination.
Grip strength was measured on a BIOSEB BIO-GT3 Grip strength meter (force transducer, S/N 180271). The rat was handled to allow all four paws to grab the mesh on the grip meter and the rat was then pulled 5 times by the base of the tail in the opposite direction of its body orientation, i.e. towards the operator and away from the grip meter. Care was taken to ensure that the force recorded reflected the grip strength of the rat and not the force of the pulls conducted by the operator. There was minimal pause between the 5 repeated pulls with recordings being separated only by the time of handling the rat (few seconds). Measurements were considered invalid if the rat let go with one or more limbs before the pull was initiated. Average values of the 5 pulls per test occasion were used for further data processing.

EAMG rats [3] = test: 14-day dosing in EAMG animals: rotarod test; format: in vivo, rat
Description: as §1, §2
Rotarod test was conducted on a Touchscreen Rotarod from Panlab (Model LE8305, Harward Apparatus). For testing the running performance, the rat was placed in one of 4 running lanes on the rotating rod that rats were challenged to run on. Prior to the first test on the rotarod on Day 0, the rat was allowed a 1-minute run at 4 rotations per minute (RPM), to familiarize with the apparatus. The rat was then allowed at least 5 minutes of rest before the test was conducted. To test the running performance, the rat was challenged with a protocol consisting of constantly accelerating speed from 4 to 40 RPM over 420 seconds. Test occasions consisted of 3 runs with at least 5 and no more than 15 minutes of rest between each run. Performance was quantified by the duration that the rat was able to remain on the rotating rod. Average values of the 3 runs per test occasion were used for further data processing.

EAMG rats [4] = test: 14-day dosing in EAMG animals: bodyweight and study completion; format: in vivo, rat
Description: as §1
Sixteen (16) rats with an EAMG clinical score of 2 were allocated to the study and stratified to one of the two treatment groups (vehicle vs NMD670, 8 rats per group). […] Grip strength and Rotarod performance were measured prior to treatment (day 0) and on days 1, 4, 7, 9, 11 and 14 during treatment. […]

patients with MG = test: Phase 1 FIH study: safety in patients with MG; format: in vivo, human
Description: 12 patients were enrolled and completed the study. For each subject, the study consisted of three study periods during which subjects received either a single dose of NMD670 400 mg, NMD670 1200 mg, or placebo with a 7-day washout period between visits. On these study visits, subjects were asked to refrain from their regular dose of pyridostigmine (if applicable) from 14 h before dosing until after the last pharmacodynamic measurement on Day 1 (see Table 13: Visit and Assessment Schedule). The cross-over design allowed intra-individual comparison of drug effects versus placebo (see FIG. 16). A balanced design was applied to control for first-order carry-over effects.
Part C was a double-blinded, placebo-controlled, three-way cross-over comparison of two single oral doses of NMD670 in men and women with stable symptomatic myasthenia gravis. 12 patients were enrolled. For each subject, the study consisted of three study periods during which subjects received either a single dose of NMD670 or placebo. On these study visits, subjects were asked to refrain from their regular dose of pyridostigmine (if applicable) for 14 hours before dosing. Single doses were administered in randomized order (400 mg free acid, 1200 mg free acid, or placebo p.o.), with a 7-day washout period between visits (FIG. 16). NMD670/placebo was administered with 240 ml of still water.

[5] = 14-day chronic dosing, 20 mg/kg twice daily

In the case of C[C@H](Oc1ccc(Br)cc1-c1ccon1)C(=O)O [NMD670, (2S)-2-[4-bromo-2-(1,2-oxazol-3-yl)phenoxy]propanoic acid], the “Grip strength after administration (significance vs vehicle)” value (EAMG rats [1]; 45 minutes after dosing, 20 mg/kg NMD670, or with 0.375 mg/kg Mestinon) is reported as “significantly increased”, the “Increase in Pulled Force (%)” value (EAMG rats [1]; per oral, 45 minutes post dosing, 0.375 mg/kg Mestinon, 20 mg/kg NMD670 or both) is reported as 15±5% and 14.5 ± 5.1% and the “Grip strength over vehicle group throughout the period of treatment” value (EAMG rats [2]; [5]) is reported as “increased grip strength”. The “Grip strength relative to bodyweight” value (EAMG rats [2]; day 0 (prior to treatment), 20 mg/kg twice daily per oral, P > 0.9999 vs vehicle) was 4.8 ± 0.17, the “Grip strength relative to bodyweight” value (EAMG rats [2]; day 1, 20 mg/kg twice daily per oral, P = 0.1225 vs vehicle) was 5.5 ± 0.46 and the “Grip strength relative to bodyweight” value (EAMG rats [2]; day 4, 20 mg/kg twice daily per oral, P = 0.0629 vs vehicle) was 5.4 ± .038. The “Grip strength relative to bodyweight” value (EAMG rats [2]; day 7, 20 mg/kg twice daily per oral, P = 0.7266 vs vehicle) was 4.9 ± 0.26, the “Grip strength relative to bodyweight” value (EAMG rats [2]; day 9, 20 mg/kg twice daily per oral, P = 0.2100 vs vehicle) was 5.0 ± 0.27 and the “Grip strength relative to bodyweight” value (EAMG rats [2]; day 11, 20 mg/kg twice daily per oral, P = 0.0206 vs vehicle) was 5.4 ± 0.41. The “Grip strength relative to bodyweight” value (EAMG rats [2]; day 14, 20 mg/kg twice daily per oral, P = 0.1010 vs vehicle) was 5.1 ± 0.47, the “Endurance on rotarod over vehicle group throughout the period of treatment” value (EAMG rats [3]; [5]) was “higher endurance on rotarod” and the “Rotarod performance (latency to fall in seconds)” value (“Rotarod performance” below) (EAMG rats [3]; day 0 (prior to treatment), 20 mg/kg twice daily per oral, P = 0.9478 vs vehicle) was 28.5 ± 7.3 s. For the same compound, the “Rotarod performance” value (EAMG rats [3]; day 1, 20 mg/kg twice daily per oral, P > 0.9999 vs vehicle) was 38.4 ± 8.7 s, the “Rotarod performance” value (EAMG rats [3]; day 4, 20 mg/kg twice daily per oral, P = 0.4613 vs vehicle) was 37.8 ± 10.1 s and the “Rotarod performance” value (EAMG rats [3]; day 7, 20 mg/kg twice daily per oral, P = 0.7852 vs vehicle) was 29.1 ± 8.8 s. For the same compound, the “Rotarod performance” value (EAMG rats [3]; day 9, 20 mg/kg twice daily per oral, P = 0.6753 vs vehicle) was 27.5 ± 9.1 s, the “Rotarod performance” value (EAMG rats [3]; day 11, 20 mg/kg twice daily per oral, P = 0.0335 vs vehicle) was 35.5 ± 12.6 s and the “Rotarod performance” value (EAMG rats [3]; day 14, 20 mg/kg twice daily per oral, P = 0.8122 vs vehicle) was 19.0 ± 5.7 s. The “Loss of body weight versus vehicle” value (EAMG rats [4]; 14-day chronic dosing, EAMG animals, 20 mg/kg twice daily (b36 prints 40 mg/kg BID)) was “attenuation in loss of body weight”, the “Treated rats that completed the study” value (EAMG rats [4]; 14-day study, early termination when body weight below 80% of maximum, vehicle 3 out of 8) was 6 of the 8 and the “Treatment-related adverse effects in MG patients” value (patients with MG; 1200 mg doses) was “no treatment-related adverse effects”. For the same compound, the “Myotonia in patients with MG” value (patients with MG; single doses up to 1200 mg) was “not observed”.
